The results in this text go back to patent publication US20140038896A1, “Retroelements and mental disorders and methods of measuring L1 retrotransposition” (Salk Institute for Biological Studies, priority 2009, published 2014).

The test system of assay [1] is endogenous rat L1 promoter region (5′UTR). Nature of the assay: ChIP of MeCP2 and Sox2 on the endogenous rat L1 promoter region in NSCs. Type of assay: cell-based. The conditions noted are these: for MeCP2 ChIP signal / association to the L1 promoter region: 500 ng/ml for 4 days. From the text:
ChIP assay was done essentially following the manufacturer's protocol using a ChIP assay kit (Upstate). Antibodies used were anti-MeCP2 (Upstate), Sox2 (Chemicon), and IgG. Purified DNA was amplified by PCR using primers for the rat L1 5′UTR promoter region (L1.3, accession # X03095).
(§1) Using chromatin immunoprecipitation (ChIP), high levels of MeCP2 were detected in association with the L1 promoter region (i.e., 5′UTR) in rat NSCs compared to differentiated neurons (FIG. 1F). To rule out differences in protein abundance that may differently influence ChIP amplification, western blot analysis was performed using lysates from cells that had undergone neuronal differentiation. […] Next, it was asked if releasing of MeCP2 from the methylated DNA would increase its association with Sox2 in solution. The Co-IP experiment in the presence of the 5-Aza was then repeated. […] It may be that both configurations can occur on the same L1 promoter region or each possibility is a L1 element sequence-dependent event.

In a further assay the test system is L1 5′UTR CpG islands. Briefly: Bisulfite analysis of L1 5′UTR DNA methylation in NSCs. It is filed as cell-based, rat. The note with it: treatment for 4-days. Here is the method: Genomic DNA from NSCs was isolated using standard phenol-chloroform extraction techniques. Subsequently, DNA was digested with the restriction enzyme EcoRI and the bisulfite conversion reaction was performed using the Epitect kit (Quiagen), following manufacturer's instructions. Primers were designed based on the rat L1 sequence Mlvi2, using Methyl Primer Express; primers for L1 converted 5′UTR region: forward 5-[…]-3′ (SEQ ID NO:1) and reverse 5′-[…]-3′ (SEQ ID NO:2). PCR products were cloned into TOPO TA 2.1 plasmids (Invitrogen) and 40 bacterial colonies were analyzed by sequencing.

Another assay has as its system MeCP2 and Sox2. Briefly: Co-immunoprecipitation between MeCP2 and Sox2. The note with it: in the presence of 5-Aza. Type of assay: cell-based, rat. Here is the method: Immunofluorescence for EGFP was performed as previously described (11). A non-transgenic animal was used to measure the background fluorescence in the brain and to establish a threshold for detection. Western blotting was carried out using standard protocols with the following antibodies: mouse anti-Actin (1/500, Ambion), rabbit anti-MeCP2 (1/1000, Imgenex or Upstate), and rabbit anti-Sox2 (1/100, Chemicon). All secondary antibodies were purchased from Jackson ImmunoResearch. For co-immunoprecipitation, the Nuclear Complex Co-IP kit (Active Motif) was used, following the manufacturer's protocol with the highest stringency buffers.
as §1

With `Nc1ncn([C@@H]2O[C@H](CO)[C@@H](O)[C@H]2O)c(=O)n1` [5-Azacytidine], the “MeCP2 ChIP signal / association to the L1 promoter region” value in assay [1] is “lost”; in assay [1] (listed as 5-Azacitidine) it was “reduced”. In assay [1] (5-Aza treatment), the “Sox2 binding to the L1 promoter” value is listed as “did riot prevent”. In addition, the “removal of methyl radicals from the 5′UTR L1 region (bisulfite)” value in the assay on L1 5′UTR CpG islands is recorded as “completely removed”. Also, in the assay with MeCP2 and Sox2, the “amount of MeCP2 in association with Sox2 in solution (Co-IP)” value is “increased”.
